Reference: paper PMC11266668, “Unraveling the mechanism of small molecule induced activation of Staphylococcus aureus signal peptidase IB” (Communications Biology, 2024)
Values after ≈ are worked out from the molar mass of the structure shown. Values joined by “and” are separate entries in the source; they are usually repeats but may differ in a detail not shown here. Equal values may be shown once.

How the values were obtained:
SpsB F158A mutant = target: T1, SpsB F158A mutant (Staphylococcus aureus, UniProt P0A070, F158A); assay: FRET-based signal peptidase assay with membrane-bound SpsB, F158A mutant; assay type: biochemical, S. aureus; details: for F158A A4 (normalized activity): replicates
T1 construct: recombinantly expressed full-length S. aureus SpsB (wt) or mutants; made in house; host or cells: E. coli BL21(DE3)pLysS, membrane fraction
T1 sequence (P0A070 1-191 F158A): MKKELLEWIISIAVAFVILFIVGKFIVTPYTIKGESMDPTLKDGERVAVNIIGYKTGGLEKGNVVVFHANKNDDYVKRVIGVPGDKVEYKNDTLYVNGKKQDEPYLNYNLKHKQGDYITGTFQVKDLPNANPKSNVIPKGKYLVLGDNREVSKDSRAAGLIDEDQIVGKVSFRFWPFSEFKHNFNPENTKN
Description: Cloning of full-length SpsB (fl-SpsB) was performed using the Invitrogen Gateway Technology in previous works by Le et al.. fl-SpsB was cloned into the destination vector pET-55-DEST (Novagen) and transformed into chemically competent E. coli BL21(DE3)pLysS cells (Promega) to prevent leaky protein overexpression. Plasmid DNA of wildtype SpsB pET-55-DEST-fl-SpsB was purified using a plasmid Miniprep Kit (peqGOLD Plasmid Miniprep Kit II, VWR Peqlab) according to the manufacturer’s instructions and used as template for all single point mutations (F67A, Y75A, F158A, Q165A). For double (F67A-Y75A, F67A-F158A, Y75A-F158A) or triple point (F67A-Y75A-F158A) mutations, the respective pET-55-DEST-fl-SpsB single point mutation or double point mutation plasmids were isolated and used as template for site-directed mutagenesis. Point mutation primers (Sigma) were designed based on the pET-55-dest-fl-SpsB construct according to the manufacturer’s instructions (Agilent). Primer sequences and order of point mutation introduction for all point mutations are listed in Supplementary Table S4. QuikChange site-directed mutagenesis PCR reactions were performed using either Phusion High-Fidelity DNA Polymerase (New England BioLabs, mutations: F67A, Q165A) or Q5 High-Fidelity DNA Polymerase (New England BioLabs, mutations: Y75A, F158A, F67A-Y75A, F67A-F158A, Y75A-F158A, F67A-Y75A-F158A) using the cycle listed below (Supplementary Table S5). The PCR mixture contained 10 µL GC buffer (NEB), 1 µL dNTP mix (10 mM), 1 µL forward primer (10 µM), 1 µL reverse primer (10 µM), 1 µL plasmid template (25 – 50 ng), 1.5 µL DMSO and 1 µL Phusion or Q5 High Fidelity DNA polymerase (NEB) and 33 µL ddH2O.
(§1) For preparation of E. coli membrane fractions harboring overexpressed S. aureus SpsB, E. coli BL21(DE3) pLysS cells harboring pET-55-DEST-fl-SpsB or respective mutant plasmids (F67A, Y75A, F158A, Q165A, F67A-Y75A, F67A-F158A, Y75A-F158A, F67A-Y75A-F158A) were grown in LB medium (supplemented with Ampicillin (100 µg/mL) and Chloramphenicol (34 µg/mL)) at 37°C (200 rpm) to OD600 ≈ 0.6 and protein overexpression was induced by the addition of isopropyl-1-thio-β-galactopyranoside (IPTG, 0.5 mM). After incubation (22 °C, 200 rpm, 3 h), cells were harvested by centrifugation (6000 × g, 4 °C, 10 min) and subsequently washed with PBS. The cell pellet was resuspended in 5 mL Tris-HCl buffer (50 mM, pH = 7.5) and lysed using a bead beater homogenizer (3 cycles: 5500 rpm for 45 s, 30 s cooling; Precellys Ceramic Kit CK01L, 7.0 mL tubes; Precellys 24 Homogenizer, Bertin Technologies). The lysate was centrifuged (12,000 × g, 4 °C, 10 min) to remove intact cells and debris. Membranes were collected from supernatant (39,000 × g, 4 °C, 75 min) and resuspended in ice-cold sodium phosphate buffer (50 mM, pH 7.5). Protein concentration was measured using the Pierce BCA Protein assay kit (Thermo Fisher Scientific, Pierce Biotechnology) and snap-frozen aliquots were stored at −80 °C.
(§2) Signal cleavage activities of recombinantly expressed full-length S. aureus SpsB (wt) or mutants (F67A, Y75A, F158A, Q165A, F67A-Y75A, F67A-F158A, Y75A-F158A, F67A-Y75A-F158A) in E. coli membranes were measured using a Förster Resonance Energy Transfer (FRET) assay as previously described[20],[36].
A synthetic peptide substrate based on SceD modified by 4-(4- dimethylaminophenylazo)benzoic (DABCYL) acid and 5-((2-aminoethyl)amino)-1- naphthalenesulfonic acid (EDANS) was used (DABCYL-[…]-EDANS, AnaSpec) as FRET substrate. Assays were performed with overexpressed wildtype SpsB (wt) or mutant (F67A, Y75A, F158A, Q165A, F67A-Y75A, F67A-F158A, Y75A-F158A, F67A-Y75A-F158A) in E. coli membranes. […]

wt SpsB = target: T2, wt SpsB (Staphylococcus aureus, UniProt P0A070); assay: FRET-based signal peptidase assay with membrane-bound SpsB (wt); assay type: biochemical, S. aureus; details: for wt A4 (normalized activity): replicates
T2 construct: recombinantly expressed full-length S. aureus SpsB (wt) or mutants; made in house; host or cells: E. coli BL21(DE3)pLysS, membrane fraction
Description: as §1, §2
A synthetic peptide substrate based on SceD modified by 4-(4- dimethylaminophenylazo)benzoic (DABCYL) acid and 5-((2-aminoethyl)amino)-1- naphthalenesulfonic acid (EDANS) was used (DABCYL-[…]-EDANS, AnaSpec) as FRET substrate. Assays were performed with overexpressed wildtype SpsB (wt) or mutant (F67A, Y75A, F158A, Q165A, F67A-Y75A, F67A-F158A, Y75A-F158A, F67A-Y75A-F158A) in E. coli membranes. As controls for background activity, respective E. coli membranes without IPTG induction were used (see Experimental procedure “Preparation of E. coli membrane (control) fractions. Membranes containing recombinant wildtype SpsB or mutant (50 µg/mL membrane concentration, 100 µL/well final volume, sodium phosphate buffer, 50 mM, pH 7.5, addition of detergent if indicated; final concentrations in buffer: 0.1% CHAPS, 0.001% NP-40 or 0.1% Tween) were pre-treated with PK150, Arylomycin A4 or DMSO as a control (final concentration 1%) at 37 °C for 5 min. After addition of FRET substrate (10 µM final substrate concentration; final DMF concentration from substrate stock 1%), fluorescence turnover was monitored by an Infinite™ M Nano Tecan 200Pro reader (340 nm excitation and 510 nm emission wavelengths, fluorescence top reading mode) at 37 °C for at least 2 h.
The assay was performed in technical triplicates for at least three biologically independent experiments (n ≥ 3). Significance of cleavage activity was determined via a two-tailed Students t-test for comparison of membranes treated with DMSO to PK150.

S. aureus NCTC 8325 = test system: S. aureus NCTC 8325; set-up: method as in Le et al., Nat Chem. 2020; details: ref Le et al., Nat Chem. 2020; cited from earlier work

With `CCC(C)CCCCCCCCC(=O)N(C)[C@H](CO)C(=O)N[C@H](C)C(=O)NCC(=O)N(C)C1C(=O)N[C@@H](C)C(=O)NC(C(=O)O)Cc2ccc(O)c(c2)-c2cc1ccc2O` (stereo partly drawn) [Arylomycin A4] the “activity observed (comment)” value (SpsB F158A mutant; >= 6.25 µM A4, F158A) was “no activity observed >= 6.25 µM A4”, the “F158A A4 (normalized activity)” value (SpsB F158A mutant; A4 0,39µM) was 32.4463 and 49.9171 and 42.4421 and 52.4288 and the “F158A A4 (normalized activity)” value (SpsB F158A mutant; A4 0,78µM) was 16.172 and 26.1385 and 26.2791 and 38.6178. For the same compound, the “F158A A4 (normalized activity)” value (SpsB F158A mutant; A4 0,006µM) was 114.109 and 96.9597 and 113.52, the “F158A A4 (normalized activity)” value (SpsB F158A mutant; A4 0,012µM) was 105.97 and 95.3486 and 96.5076 and the “F158A A4 (normalized activity)” value (SpsB F158A mutant; A4 0,024µM) was 106.863 and 85.3442 and 101.455. For the same compound, the “F158A A4 (normalized activity)” value (SpsB F158A mutant; A4 25uM) was 1.625, the “F158A A4 (normalized activity)” value (SpsB F158A mutant; A4 0,049µM) was 49.0532 and 88.7486 and 79.7833 and 90.4487 and the “F158A A4 (normalized activity)” value (SpsB F158A mutant; A4 50uM) was 0. For the same compound, the “F158A A4 (normalized activity)” value (SpsB F158A mutant; A4 0,097µM) was 43.0655 and 77.8288 and 72.5853 and 85.1042, the “F158A A4 (normalized activity)” value (SpsB F158A mutant; A4 0,195µM) was 35.3889 and 69.8941 and 59.8004 and 66.9013 and the “F158A A4 (normalized activity)” value (SpsB F158A mutant; A4 3,125µM) was 9.135 and 8.856 and 10.0772 and 7.1542. The “F158A A4 (normalized activity)” value (SpsB F158A mutant; A4 6,25µM) was 5.328 and 0 (3×), the “F158A A4 (normalized activity)” value (SpsB F158A mutant; A4 12,5uM) was 3.344 and the “F158A A4 (normalized activity)” value (SpsB F158A mutant; A4 1,5626µM) was 13.3342 and 20.0153 and 23.1869 and 21.923. For the same compound, the IC50 (SpsB F158A mutant; F158A mutant) was 229 nM, the “activity observed (comment)” value (wt SpsB; >= 6.25 µM A4, wt) was “no activity observed >= 6.25 µM A4” and the “wt A4 (normalized activity)” value (wt SpsB; A4 0.195uM) was 45.9128 and 47.6989 and 41.1571 and 57.7909. For the same compound, the “wt A4 (normalized activity)” value (wt SpsB; A4 0.39uM) was 29.005 and 27.5696 and 32.0075 and 46.11, the “wt A4 (normalized activity)” value (wt SpsB; A4 0.78uM) was 22.2989 and 17.0381 and 18.021 and 27.9093 and the “wt A4 (normalized activity)” value (wt SpsB; A4 1.5625uM) was 12.8972 and 7.451 and 11.5505 and 15.4289. The “wt A4 (normalized activity)” value (wt SpsB; A4 3.125uM) was 11.0377 and 3.5503 and 8.876 and 8.105, the “wt A4 (normalized activity)” value (wt SpsB; A4 0,006uM) was 95.8032 and 76.7916 and 108.843 and the “wt A4 (normalized activity)” value (wt SpsB; A4 6.25uM) was 6.541 and -3.189 and 3.474 and 4.294. For the same compound, the “wt A4 (normalized activity)” value (wt SpsB; A4 0,012uM) was 85.1742 and 80.5391 and 106.049, the “wt A4 (normalized activity)” value (wt SpsB; A4 12.5uM) was 6.292 and the “wt A4 (normalized activity)” value (wt SpsB; A4 0,024uM) was 82.0951 and 107.605 and 99.2001. The “wt A4 (normalized activity)” value (wt SpsB; A4 25uM) was 5.273, the “wt A4 (normalized activity)” value (wt SpsB; A4 0,048uM) was 88.089 and 72.2661 and 88.1109 and the “wt A4 (normalized activity)” value (wt SpsB; A4 50uM) was 0. The “wt A4 (normalized activity)” value (wt SpsB; A4 0,097uM) was 68.2227 and 67.6529 and 63.3355 and 86.9713 and the IC50 (wt SpsB; wt) was 210 nM.
In the case of `C[S+](C)[O-]` [DMSO], the “wt DMSO + 0.001% NP-40 norm. value” (wt SpsB; 0.001% NP-40, normalized to DMSO + 0.001% NP-40 (100), single biological replicates) is reported as 144.811 and 130.505, the “wt DMSO + 0.01% Tween norm. value” (wt SpsB; 0.01% Tween, normalized to DMSO + 0.01% Tween (100), single biological replicates) is reported as 133.237 and 138.302 and the “wt DMSO + 0.1% Chaps norm. value” (wt SpsB; 0.1% Chaps, normalized to DMSO + 0.1% Chaps (100), single biological replicates) is reported as 187.838 and 176.739.
In the case of `C#CCCC1(CCOC(=O)c2ccc(NC(=O)Nc3ccc(Cl)c(C(F)(F)F)c3)cc2)N=N1` [PK150-P, 2-(3-(But-3-inyl)-3H-diazirin-3-yl)ethyl4-(3-(4-Chloro-3trifluoromethylphenyl)ureido) benzoate], the MIC (S. aureus NCTC 8325) is listed as 1.0 µM (≈ 0.479 µg/mL).
